In patent publication US7772183B2 (Bristol-Myers Squibb Company, priority 2005, dated 2010):
Like-named read-outs stand apart in the source and are kept apart here.

Experiments:
[1] = target: T1, HCV NS3/4A protease complex, BMS strain (UniProt P27958, species not given/STRAIN_BMS); experiment: FRET peptide assay to monitor HCV NS3/4A proteolytic activity (BMS strain); type: biochemical, Hepatitis C virus (genotype 1a); conditions: NS3/4A BMS strain; read-out: IC50 Range
T1 construct: said of H77 and J4L6S; fused on or other part: A three-lysine solubilising tail at the C-terminus of NS4A and a His tag (pET21b, Ni-NTA purification)
T1 sequence (P27958 1027-1657, change not shown, one chain of several): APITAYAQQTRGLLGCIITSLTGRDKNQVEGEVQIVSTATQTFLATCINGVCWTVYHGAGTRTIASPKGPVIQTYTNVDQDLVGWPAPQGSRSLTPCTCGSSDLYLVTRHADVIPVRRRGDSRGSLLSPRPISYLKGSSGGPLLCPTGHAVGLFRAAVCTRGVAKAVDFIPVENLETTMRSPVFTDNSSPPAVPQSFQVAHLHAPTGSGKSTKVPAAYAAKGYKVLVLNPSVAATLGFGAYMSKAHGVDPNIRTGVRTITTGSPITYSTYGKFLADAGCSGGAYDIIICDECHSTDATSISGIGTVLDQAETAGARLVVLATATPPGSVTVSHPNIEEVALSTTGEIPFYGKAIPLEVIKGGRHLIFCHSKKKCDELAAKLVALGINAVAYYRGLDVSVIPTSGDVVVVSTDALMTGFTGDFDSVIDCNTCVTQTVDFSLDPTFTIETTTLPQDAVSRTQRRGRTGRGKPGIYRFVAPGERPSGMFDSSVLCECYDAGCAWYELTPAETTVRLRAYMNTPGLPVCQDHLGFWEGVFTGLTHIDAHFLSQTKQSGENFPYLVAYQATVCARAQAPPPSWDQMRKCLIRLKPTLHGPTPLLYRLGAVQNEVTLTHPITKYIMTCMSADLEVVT
Summary of the method: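 Recombinant NS3/4A complexes (aa 1027–1711) from H77 (1a) and J4L6S (1b) carried a three-lysine tail, C1711G and C1454S. They were expressed in E. coli BL21(DE3) (0.5 mM IPTG, 22 h, 20 °C), then purified by Ni-NTA and Superdex-S200 to >90% purity. The BMS strain was a genotype 1a clone from patient serum.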

[2] = test system: HCV replicon in HUH-7 cells; experiment: HCV replicon FRET assay; type: cell-based, Hepatitis C virus (strain 1b); conditions: Hepatitis C virus
Summary of the method: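 HUH-7 cells stably carrying a genotype 1b subgenomic HCV replicon (NS3–NS5B) treated with compound for 4 days at 37° C, 0.5% DMSO final. Cytotoxicity (CC50) read by alamar Blue; cells then lysed with 10 μM FRET HCV protease peptide substrate and kinetically read (340/490 nm) for EC50.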

[3] = Huh-7, HCV replicon, for compounds tested, read-out: EC50 Range

## CC(C)(C)OC(=O)N[C@H]1CCCCC/C=C\[C@@H]2C[C@@]2(C(=O)NS(=O)(=O)C2CC2)NC(=O)[C@@H]2C[C@@H](OC(=O)c3ccc(-n4cccn4)cc3)CN2C1=O [Compound 32, 18-(4-[1-pyrazolyl]benzoyloxy)-14-tert-butoxycarbonylamino-4-cyclopropylsulfonylaminocarbonyl-2,15-dioxo-3,16-diazatricyclo-[14.3.0.0^4,6]-nonadec-7-ene]
[1]
  IC50: < 100 nM
[2]; [3]
  EC50: < 100 nM
other
  melting point: 167 to 169 °C

## CC(C)(C)OC(=O)N[C@H]1CCCCC/C=C\[C@@H]2C[C@@]2(C(=O)NS(=O)(=O)C2CC2)NC(=O)[C@@H]2C[C@@H](OC(=O)c3cccc(C#N)c3)CN2C1=O [Compound 33, 18-(3-cyanobenzoyloxy)-14-tert-butoxycarbonylamino-4-cyclopropylsulfonylaminocarbonyl-2,15-dioxo-3,16-diazatricyclo-[14.3.0.0^4,6]-nonadec-7-ene]
[1]
  IC50: < 100 nM
[2]; [3]
  EC50: 100 to 1000 nM
other
  melting point: 151 to 153 °C

## Cc1cc(C(=O)O[C@@H]2C[C@H]3C(=O)N[C@]4(C(=O)NS(=O)(=O)C5CC5)C[C@H]4/C=C\CCCCC[C@H](NC(=O)OC(C)(C)C)C(=O)N3C2)no1 [Compound 34, 18-(5-methylisoxazole-3-carbonyloxy)-14-tert-butoxycarbonylamino-4-cyclopropylsulfonylaminocarbonyl-2,15-dioxo-3,16-diazatricyclo-[14.3.0.0^4,6]-nonadec-7-ene]
[1]
  IC50: < 100 nM
[2]; [3]
  EC50: > 1000 nM
other
  melting point: 157 to 159 °C

## Cc1cc(C(=O)O[C@@H]2C[C@H]3C(=O)N[C@]4(C(=O)NS(=O)(=O)C5CC5)C[C@H]4/C=C\CCCCC[C@H](NC(=O)OC(C)(C)C)C(=O)N3C2)n(C)n1 [Compound 35]
[1]
  IC50: < 100 nM
[2]; [3]
  EC50: 100 to 1000 nM
other
  melting point: 149 to 151 °C

## CC(C)(C)OC(=O)N[C@H]1CCCOC/C=C\[C@@H]2C[C@@]2(C(=O)NS(=O)(=O)C2CC2)NC(=O)[C@@H]2C[C@@H](OC(=O)NC3CCCCC3)CN2C1=O [Compound 36, 18-(cyclohexylaminocarbonyloxy)-14-tert-butoxycarbonylamino-4-cyclopropylsulfonylaminocarbonyl-2,15-dioxo-3,16-diaza-10-oxatricyclo-[14.3.0.0^4,6]-nonadec-7-ene]
[1]
  IC50: 100 to 1000 nM
[2]; [3]
  EC50: > 1000 nM
other
  melting point: 156 to 158 °C

## CC(C)(C)OC(=O)N[C@H]1CCCOC/C=C\[C@@H]2C[C@@]2(C(=O)NS(=O)(=O)C2CC2)NC(=O)[C@@H]2C[C@@H](OC(=O)NCC3CCCCC3)CN2C1=O [Compound 37, 18-cyclohexylmethylaminocarbonyloxyl-14-tert-butoxycarbonylamino-4-cyclopropylsulfonylaminocarbonyl-2,15-dioxo-3,16-diaza-10-oxatricyclo-[14.3.0.0^4,6]-nonadec-7-ene]
[1]
  IC50: 100 to 1000 nM
[2]; [3]
  EC50: > 1000 nM
other
  melting point: 142 to 144 °C

## COC(=O)c1ccccc1NC(=O)O[C@@H]1C[C@H]2C(=O)N[C@]3(C(=O)NS(=O)(=O)C4CC4)C[C@H]3/C=C\COCCC[C@H](NC(=O)OC(C)(C)C)C(=O)N2C1 [Compound 38, 18-(2-carbomethoxyphenylaminocarbonyloxy)-14-tert-butoxycarbonylamino-4-cyclopropylsulfonylaminocarbonyl-2,15-dioxo-3,16-diaza-10-oxatricyclo-[14.3.0.0^4,6]-nonadec-7-ene]
[1]
  IC50: < 100 nM
[2]; Huh-7, read-out: EC50 Range
  EC50: 100 to 1000 nM
other
  melting point: 147 to 149 °C

## CC(C)(C)OC(=O)N[C@H]1COCCC/C=C\[C@@H]2C[C@@]2(C(=O)NS(=O)(=O)C2CC2)NC(=O)[C@@H]2C[C@@H](OC(=O)Nc3ccccc3Oc3ccccc3)CN2C1=O [Compound 40, 18-(2-phenoxyphenylaminocarbonyloxy)-14-tert-butoxycarbonylamino-4-cyclopropylsulfonylaminocarbonyl-2,15-dioxo-3,16-diaza-12-oxatricyclo-[14.3.0.0^4,6]-nonadec-7-ene]
[1]
  IC50: 100 to 1000 nM
[2]; [3]
  EC50: 100 to 1000 nM
other
  melting point: 151 to 153 °C

## CC(C)(C)OC(=O)N[C@H]1COCCC/C=C\[C@@H]2C[C@@]2(C(=O)NS(=O)(=O)C2CC2)NC(=O)[C@@H]2C[C@@H](OC(=O)Nc3ccc(Oc4ccccc4)cc3)CN2C1=O [Compound 41, 18-(4-phenoxyphenylaminocabonyloxy)-14-tert-butoxycarbonylamino-4-cyclopropylsulfonylaminocarbonyl-2,15-dioxo-3,16-diaza-12-oxatricyclo-[14.3.0.0^4,6]-nonadec-7-ene]
[1]
  IC50: > 1000 nM
[2]; [3]
  EC50: > 1000 nM
other
  melting point: 163 to 165 °C

## CC(C)(C)OC(=O)N[C@H]1COCCC/C=C\[C@@H]2C[C@@]2(C(=O)NS(=O)(=O)C2CC2)NC(=O)[C@@H]2C[C@@H](OC(=O)Nc3ccccc3-c3ccccc3)CN2C1=O [Compound 42, 18-(2-biphenylaminocarbonyloxy)-14-tert-butoxycarbonylamino-4-cyclopropylsulfonylaminocarbonyl-2,15-dioxo-3,16-diaza-12-oxatricyclo-[14.3.0.0^4,6]-nonadec-7-ene]
[1]
  IC50: < 100 nM
[2]; [3]
  EC50: 100 to 1000 nM
other
  melting point: 147 to 149 °C

## CCOC(=O)c1ccccc1NC(=O)N[C@H]1CCCCC/C=C\[C@@H]2C[C@@]2(C(=O)NS(=O)(=O)C2CC2)NC(=O)[C@@H]2C[C@@H](OC(=O)Nc3ccccc3C(=O)OCC)CN2C1=O [Compound 44]
[1]
  IC50: < 100 nM
[2]; [3]
  EC50: 100 to 1000 nM
other
  melting point: 142 to 144 °C

## CC(C)(C)OC(=O)N[C@H]1COCCC/C=C\[C@@H]2C[C@@]2(C(=O)NS(=O)(=O)C2CC2)NC(=O)[C@@H]2C[C@@H](OC(=O)N3CCc4ccccc43)CN2C1=O [Compound 45, 18-(indolinecarbonyloxy)-14-tert-butoxycarbonylamino-4-cyclopropylsulfonylaminocarbonyl-2,15-dioxo-3,16-diaza-12-oxatricyclo-[14.3.0.0^4,6]-nonadec-7-ene]
[1]
  IC50: < 100 nM
[2]; [3]
  EC50: 100 to 1000 nM
other
  melting point: 128 to 130 °C
